In brackets after ≈: the same amount, converted by molar mass. Several values for one entry are separate records, joined by “and”; a condition that tells them apart may be missing. Equal values may be shown once. Blank lines part the entries; values can stand above or below the compound they belong to.
Key:
Test in all cases: ≥ marks a high value that may be exact or a test limit, other limits are often not marked, values filed in µg/mL are converted to µM
[1] = system: Candida albicans ATCC 90028
[2] = system: Candida albicans CIB 45437
[3] = system: Escherichia coli ATCC 25922
[4] = system: Escherichia coli CIB 84492
[5] = system: Staphylococcus aureus ATCC 25923
[6] = system: Staphylococcus aureus CIB 85462
[7] = system: Staphylococcus aureus NCTC 8325
[8] = system: Bacillus thuringiensis serovar israelensis
[9] = system: Candida glabrata ATCC 2001
[10] = system: Escherichia coli D31 CGSC 5165
[11] = system: Escherichia coli DH5alpha
[12] = system: Acinetobacter calcoaceticus
Citrobacter freundii = system: Citrobacter freundii
Enterobacter cloacae = system: Enterobacter cloacae
[13] = system: Enterococcus faecalis ATCC 29212
Enterococcus faecium = system: Enterococcus faecium
Escherichia coli = system: Escherichia coli
Klebsiella aerogenes = system: Klebsiella aerogenes
Klebsiella oxytoca = system: Klebsiella oxytoca
[14] = system: Klebsiella pneumoniae ATCC 700603
Proteus mirabilis = system: Proteus mirabilis
Proteus vulgaris = system: Proteus vulgaris
[15] = system: Pseudomonas aeruginosa ATCC 27853
Pseudomonas aeruginosa = system: Pseudomonas aeruginosa
Serratia marcescens = system: Serratia marcescens
Staphylococcus aureus = system: Staphylococcus aureus
[16] = system: Staphylococcus epidermidis ATCC 14990
[17] = system: Staphylococcus epidermidis
[18] = system: Staphylococcus haemolyticus
[19] = system: Streptococcus agalactiae ATCC 27956
[20] = system: Streptococcus oralis ATCC 35037
[21] = system: Streptococcus pneumoniae ATCC 49619
Streptococcus pneumoniae = system: Streptococcus pneumoniae
Candida albicans SC5314 = system: Candida albicans SC5314
[22] = system: Candida glabrata IFM 46861
Candida krusei IFN 5462 = system: Candida krusei IFN 5462
[23] = system: Candida tropicalis IFM 46862
[24] = system: Klebsiella pneumoniae CIP 8291
[25] = system: Lactococcus lactis subsp. cremoris I116
Listeria ivanovii LMA 94 = system: Listeria ivanovii LMA 94
[26] = system: Staphylococcus aureus CIP 677

SMILES: CC[C@H](C)[C@H](NC(=O)[C@H](Cc1ccccc1)NC(=O)[C@H](CCCCN)NC(=O)[C@H](C)NC(=O)[C@@H](NC(=O)[C@H](CO)NC(=O)[C@H](CCCCN)NC(=O)[C@H](CCSC)NC(=O)[C@@H](NC(=O)[C@H](CCCCN)NC(=O)[C@H](Cc1ccccc1)NC(=O)[C@H](Cc1c[nH]c2ccccc12)NC(=O)[C@H](CCCCN)NC(=O)[C@@H](NC(=O)[C@@H](N)CCCCN)[C@@H](C)CC)[C@@H](C)O)[C@@H](C)CC)C(=O)N[C@@H](C)C(=O)N[C@@H](CCCCN)C(=O)N[C@@H](CCC(=O)O)C(=O)N[C@@H](CCC(N)=O)C(=O)N[C@@H](CCSC)C(=O)N[C@@H](CCCCN)C(=O)N[C@@H](CCCCN)C(=O)N[C@@H](Cc1cnc[nH]1)C(=O)N[C@@H](CC(C)C)C(=O)NCC(=O)NCC(=O)N[C@@H](CCC(=O)O)C(=O)O [KIKWFKTMKSIAKFIAKEQMKKHLGGE]
- MIC [8]: 24.5 µM (≈ 78.6 µg/mL)
- MIC [9]: ≥ 122 µM
- MIC [10]: 10 µM (≈ 32.1 µg/mL)
- MIC [11]: ≥ 40 µM

SMILES: NC(=O)CC[C@H](N)C(=O)N[C@@H](Cc1c[nH]c2ccccc12)C(=O)NCC(=O)N[C@@H](CCCN=C(N)N)C(=O)N[C@@H](CCCN=C(N)N)C(=O)N[C@H]1CSSC[C@@H]2NC(=O)[C@H](Cc3ccc(O)cc3)NC(=O)[C@H](CCCN=C(N)N)NC(=O)[C@H](CCCN=C(N)N)NC(=O)CNC(=O)[C@@H]3CCCN3C(=O)CNC(=O)[C@H](Cc3c[nH]c4ccccc34)NC(=O)CNC(=O)[C@H](CSSC[C@@H](C(=O)O)NC(=O)[C@H](Cc3c[nH]c4ccccc34)NC(=O)[C@H](CCCN=C(N)N)NC(=O)[C@H](CCCN=C(N)N)NC2=O)NC1=O [QWGRRCCGWGPGRRYCRRWC]
- MIC [12]: ≥ 50.3 µM
- MIC (Citrobacter freundii): ≥ 50.3 µM
- MIC (Enterobacter cloacae): 2.22 µM (≈ 5.65 µg/mL)
- MIC [13]: 15.7 µM and 31.5 µM
- MIC (Enterococcus faecium): 1.57 µM (≈ 3.99 µg/mL)
- MIC (Escherichia coli): 2.22 µM (≈ 5.65 µg/mL)
- MIC (Klebsiella aerogenes): 8.9 µM (≈ 22.6 µg/mL)
- MIC (Klebsiella oxytoca): 17.8 µM (≈ 45.2 µg/mL)
- MIC [14]: 47.2 µM and 62.9 µM
- MIC (Proteus mirabilis): 25.2 µM (≈ 63.9 µg/mL)
- MIC (Proteus vulgaris): 17.8 µM (≈ 45.2 µg/mL)
- MIC [15]: 62.9 µM (≈ 160 µg/mL)
- MIC (Pseudomonas aeruginosa): > 50.3 µM
- MIC (Serratia marcescens): 4.45 µM (≈ 11.3 µg/mL)
- MIC (Staphylococcus aureus): 3.15 µM (≈ 7.99 µg/mL)
- MIC [16]: 31.5 µM and ≥ 62.9 µM
- MIC [17]: 8.9 µM (≈ 22.6 µg/mL)
- MIC [18]: 4.45 µM (≈ 11.3 µg/mL)
- MIC [19]: ≥ 62.9 µM
- MIC [20]: 31.5 µM and ≥ 78.6 µM
- MIC [21]: 7.86 µM and 15.7 µM
- MIC (Streptococcus pneumoniae): 8.9 µM (≈ 22.6 µg/mL)

Further lines, results first:

- MIC [1]: ≥ 100 µM
- MIC [2]: 19 µM (≈ 64 µg/mL)
- MIC [3]: 12.5 µM (≈ 42.1 µg/mL)
- MIC [4]: ≥ 38 µM
- MIC [5]: 19 µM (≈ 64 µg/mL)
- MIC [6]: 19 µM (≈ 64 µg/mL)
- MIC [7]: ≥ 50 µM
SMILES: CC(C)C[C@H](NC(=O)CN)C(=O)N[C@@H](CC(C)C)C(=O)N[C@@H](CC(=O)O)C(=O)N[C@H](C(=O)N[C@@H](Cc1ccccc1)C(=O)N[C@@H](CCCCN)C(=O)N[C@@H](CC(N)=O)C(=O)N[C@@H](CC(C)C)C(=O)N[C@@H](C)C(=O)N[C@@H](CC(C)C)C(=O)N[C@@H](CC(N)=O)C(=O)N[C@@H](C)C(=O)N[C@@H](C)C(=O)N[C@@H](CCCCN)C(=O)N[C@@H](CO)C(=O)N[C@@H](C)C(=O)NCC(=O)N[C@H](C(=O)N[C@@H](CO)C(=O)N[C@H](C(=O)N[C@@H](CC(C)C)C(=O)N[C@@H](CC(N)=O)C(=O)N[C@@H](CO)C(=O)N[C@@H](CC(C)C)C(=O)N[C@@H](CO)C(=O)N[C@H]1CSSC[C@@H](C(=O)O)NC(=O)[C@H]([C@@H](C)O)NC(=O)[C@H](CCCCN)NC(=O)[C@H](CO)NC(=O)[C@H](CC(C)C)NC(=O)[C@H](CCCCN)NC1=O)C(C)C)C(C)C)[C@@H](C)O [GLLDTFKNLALNAAKSAGVSVLNSLSCKLSKTC]

- MIC (Candida albicans SC5314): 1.6 µM and 2.5 µM
- MIC [22]: 2.5 µM (≈ 4.7 µg/mL)
- MIC (Candida krusei IFN 5462): 2.5 µM (≈ 4.7 µg/mL)
- MIC [23]: 2.5 µM (≈ 4.7 µg/mL)
SMILES: CC(C)[C@H](N)C(=O)N[C@@H](CO)C(=O)N[C@@H](CCCN=C(N)N)C(=O)N[C@@H](CCCN=C(N)N)C(=O)N[C@@H](CCCN=C(N)N)C(=O)N[C@@H](CCCN=C(N)N)C(=O)N[C@@H](CCCN=C(N)N)C(=O)N[C@@H](CCCN=C(N)N)C(=O)NCC(=O)NCC(=O)N[C@@H](CCCN=C(N)N)C(=O)N[C@@H](CCCN=C(N)N)C(=O)N[C@@H](CCCN=C(N)N)C(=O)N[C@@H](CCCN=C(N)N)C(=O)O [VSRRRRRRGGRRRR]

- MIC [24]: ≥ 64 µM
- MIC [25]: 4 µM (≈ 10.8 µg/mL)
- MIC (Listeria ivanovii LMA 94): 8 µM (≈ 21.7 µg/mL)
- MIC [26]: 8 µM (≈ 21.7 µg/mL)
SMILES: CC[C@H](C)[C@H](NC(=O)[C@H](CCCCN)NC(=O)[C@H](CC(C)C)NC(=O)[C@H](C)NC(=O)[C@H](CO)NC(=O)CNC(=O)[C@H](CC(C)C)NC(=O)[C@@H](N)Cc1c[nH]c2ccccc12)C(=O)NCC(=O)N[C@@H](C)C(=O)N[C@@H](CCCCN)C(=O)N[C@@H](CC(C)C)C(=O)N[C@@H](CC(C)C)C(=O)N1CCC[C@H]1C(=O)N[C@@H](CO)C(=O)N[C@H](C(=O)N[C@H](C(=O)NCC(=O)N[C@@H](CC(C)C)C(=O)N[C@@H](Cc1ccccc1)C(=O)N[C@@H](CCCCN)C(=O)N[C@@H](CCCCN)C(=O)N[C@@H](CCCCN)C(=O)N[C@@H](CCCCN)C(=O)N[C@@H](CCC(N)=O)C(=O)O)C(C)C)C(C)C [WLGSALKIGAKLLPSVVGLFKKKKQ]

From DBAASP
